Numbered stars: 1 amine (or outer) side, 2 acyl side, 3 side chain; on linkers, the order of the positions; unused ones are H or OH. Bridge positions count the residues as written; N and C are the ends. Square brackets hold non-standard residues; d marks the D form. Peptide text beside a SMILES is read from it. * marks the point of attachment. ξ: configuration not given here. Orn(4R-OH,5R-OCH2CH2NMe3+) = C[N+](C)(C)CCO[C@@H](N[*:3])[C@H](O)C[C@H](N[*:1])C(=O)[*:2]; hTyr(3S-OH,4S-OH,3'-OSO3H) = N[C@H](C(=O)O)[C@H](O)[C@@H](O)c1ccc(O)c(OS(=O)(=O)O)c1; pTerphenylCO(4''-OnC5H11) = CCCCCOc1ccc(-c2ccc(-c3ccc(C(=O)*)cc3)cc2)cc1; Orn(4R-OH,5R-OH) = O=C([C@H](C[C@@H](O)[C@@H](O)N[*:3])N[*:1])[*:2]; hTyr(3S-OH,4S-OH) = N[C@H](C(=O)O)[C@H](O)[C@@H](O)c1ccc(O)cc1; Pro(3S-OH,4S-Me) = C[C@H]1CN[C@H](C(=O)O)[C@H]1O; X2 = CCCCCOc1ccc(-c2cc(-c3ccc(C(=O)*)cc3)no2)cc1; Gln(3R-OH) = NC(=O)C[C@@H](O)[C@H](N)C(=O)O; X1 = C[C@H]1CN([*:1])C(C(=O)[*:2])C1O; Hyp = O=C(O)[C@@H]1C[C@@H](O)CN1; ξT = CC(O)C(N)C(=O)O
System: Aspergillus fumigatus (strain AF293)
Experiment: Murine model of pulmonary aspergillosis (Example 9), survival and lung burden
Type: in vivo
Details: for Group Geometric mean / Log10 Group Geometric mean / Log10 reduction from vehicle control: terminal lung burden
Description: Animal Strain and Housing. Mice used in these studies were supplied by Charles River (Margate UK) and were specific pathogen free. The strain of mice used was ICR (also known as CD1 Mice) which is a well characterized outbred murine strain. Male mice were 11-15 g on receipt at our facility and allowed to acclimatize for at least seven days.
Immunosuppression. Mice were immunosuppressed on Day −4 with 150 mg/kg cyclophosphamide IP, and on Day −1 with 150 mg/kg cyclophosphamide IP and 175 mg/kg cortisone acetate SC. To prevent bacterial infection due to the immunosuppression mice were given 50 mg/kg/day ceftazidime.
Preparation of Organism and Infection. A. fumigatus strain AF293 inoculum was prepared from spore cultures grown on Sabouraud Dextrose agar (SAB) containing 50 μg/mL chloramphenicol (SABC) in vented tissue culture flasks. Following incubation for 7-10 days at 30° C., spore cultures were washed in sterile phosphate buffered saline (PBS) containing 0.05% Tween 80. Spore count was determined using a haemocytometer and spores were diluted in PBS to ˜6.9×10^6 CFU/mL. Inoculum concentration was confirmed by quantitative culture onto SABC agar. Neutropenic mice lungs were infected with 0.04 mL (0.02 mL/nares) of ˜6.9×10^6 CFU/mL (˜2.8×10^5 cfu/mouse) of A. fumigatus strain AF293 by intranasal (IN) instillation under temporary 2.5% isoflurane induced anesthesia.
Preparation of Test Articles. Micafungin was provided as a 50 mg vial (Lot 02323002, expiry 08/2017) and was prepared as per manufacturer instructions by adding 5 mL saline for injection (SFI) directly into the vial to make a 10 mg/mL stock solution. This solution was then diluted further in SFI to a working concentration of 0.2 mg/mL. The compound was administered IP at 10 mL/kg to achieve a 2 mg/kg dose. It was prepared fresh once and stored at 4° C. between doses.
Test article CD101 stock was prepared at 2 mg/mL in 10% DMSO/1% Tween 20 diluent. A clear non particulate solution was obtained following gentle mixing. The stock was kept at 4° C. until required. Study doses of 5 mg/kg (0.5 mg/mL) and 10 mg/kg (1 mg/mL) were prepared from the 2 mg/mL stock as required by diluting in 10% DMSO/1% Tween 20 diluent. The 2 mg/mL stock was used undiluted for the 20 mg/kg study dose. All doses were administered IP at 10 mL/kg.
Treatment. For this study, treatments were initiated on day five pre-infection according to treatment groups outlined in Table 15. A total of 78 mice (six mice per treatment group) were used in the study.
Endpoints. The primary endpoint for this study was survival within agreed ethical limits (>20% weight loss, severe hypothermia <34° C., inability to reach food or drink, severe hunching). Mice were monitored by daily weight measurements with observations as frequently as clinical condition required. Mice presenting with severe clinical deterioration were humanely euthanized using an overdose of pentobarbitone administered by IP injection following clinical assessment and the time of death was recorded. Animal carcasses were stored at −20° C. for assessment of burden. Ten days post infection all surviving animals were weighed and had their clinical condition assessed prior to being euthanized. Final survival numbers were recorded and analyzed as described below and carcasses frozen at −20° C. prior to further processing.
A secondary endpoint for the study was terminal lung tissue burden. Immediately following confirmation of death, carcasses were frozen at −20° C. prior to tissue dissection and processing. The frozen carcasses were thawed at room temperature and the lungs removed and placed into pre-weighed bead-beating tubes containing 2 mL of PBS and subjected to mechanical disruption. Organ homogenates were diluted further in PBS and quantitatively cultured for A. fumigatus onto SABC and incubated at 30° C. for 24-48 hours. […]

[1] = 5 mg/kg IP Day 0 (1 h post infection)
[2] = 2 mg/kg IP Day 0 (1 h post infection)

CCCCCOc1ccc(-c2ccc(-c3ccc(C(=O)N[C@H]4C[C@@H](O)[C@@H](OCC[N+](C)(C)C)NC(=O)C5C(O)[C@@H](C)CN5C(=O)[C@H]([C@@H](C)O)NC(=O)[C@H]([C@H](O)[C@@H](O)c5ccc(O)cc5)NC(=O)[C@@H]5C[C@@H](O)CN5C(=O)C(C(C)O)NC4=O)cc3)cc2)cc1 (stereo partly drawn) [CD101] ({pTerphenylCO(4''-OnC5H11)}-[Orn(4R-OH,5R-OCH2CH2NMe3+)][ξT][Hyp][hTyr(3S-OH,4S-OH)]T[X1]; lactam 1-C)
Mean Survival [1]: 67.8 h
Median Survival [1]: 64.6 h
Mean Survival (5 mg/kg IP Day −1): 72.1 h
Median Survival (5 mg/kg IP Day −1): 67.6 h
Mean Survival (5 mg/kg IP Day −3): 70.0 h
Median Survival (5 mg/kg IP Day −3): 67.7 h
Mean Survival (5 mg/kg IP Day −5): 65.3 h
Median Survival (5 mg/kg IP Day −5): 65.3 h
Mean Survival (10 mg/kg IP Day −1): 121.8 h
Median Survival (10 mg/kg IP Day −1): 81.0 h
Mean Survival (10 mg/kg IP Day −3): 76.9 h
Median Survival (10 mg/kg IP Day −3): 73.4 h
Mean Survival (10 mg/kg IP Day −5): 67.2 h
Median Survival (10 mg/kg IP Day −5): 65.7 h
survival compared to micafungin one day before infection (10 mg/kg and 20 mg/kg IP one day before infection): statistically greater survival
Mean Survival (20 mg/kg IP Day −1): 155.6 h
Median Survival (20 mg/kg IP Day −1): 72.3 h
Mean Survival (20 mg/kg IP Day −3): 91.9 h
Median Survival (20 mg/kg IP Day −3): 69.8 h
Mean Survival (20 mg/kg IP Day −5): 75.5 h
Median Survival (20 mg/kg IP Day −5): 69.8 h
Group Geometric mean (5 mg/kg IP Day 0): 5.65 × 10^4 CFU/g
Log10 Group Geometric mean (5 mg/kg IP Day 0): 4.75 CFU/g
Log10 reduction from vehicle control (5 mg/kg IP Day 0): −0.98 CFU/g
Group Geometric mean (5 mg/kg IP Day −1): 3.75 × 10^4 CFU/g
Log10 Group Geometric mean (5 mg/kg IP Day −1): 4.57 CFU/g
Log10 reduction from vehicle control (5 mg/kg IP Day −1): −0.80 CFU/g
Group Geometric mean (5 mg/kg IP Day −3): 5.71 × 10^4 CFU/g
Log10 Group Geometric mean (5 mg/kg IP Day −3): 4.76 CFU/g
Log10 reduction from vehicle control (5 mg/kg IP Day −3): −0.98 CFU/g
Group Geometric mean (5 mg/kg IP Day −5): 6.36 × 10^4 CFU/g
Log10 Group Geometric mean (5 mg/kg IP Day −5): 4.80 CFU/g
Log10 reduction from vehicle control (5 mg/kg IP Day −5): −1.03 CFU/g
Group Geometric mean (10 mg/kg IP Day −1): 5.17 × 10^3 CFU/g
Log10 Group Geometric mean (10 mg/kg IP Day −1): 3.71 CFU/g
Log10 reduction from vehicle control (10 mg/kg IP Day −1): 0.06 CFU/g
Group Geometric mean (10 mg/kg IP Day −3): 7.34 × 10^3 CFU/g
Log10 Group Geometric mean (10 mg/kg IP Day −3): 3.87 CFU/g
Log10 reduction from vehicle control (10 mg/kg IP Day −3): −0.09 CFU/g
Group Geometric mean (10 mg/kg IP Day −5): 3.40 × 10^4 CFU/g
Log10 Group Geometric mean (10 mg/kg IP Day −5): 4.53 CFU/g
Log10 reduction from vehicle control (10 mg/kg IP Day −5): −0.76 CFU/g
Group Geometric mean (20 mg/kg IP Day −1): 1.12 × 10^4 CFU/g
Log10 Group Geometric mean (20 mg/kg IP Day −1): 4.05 CFU/g
Log10 reduction from vehicle control (20 mg/kg IP Day −1): −0.28 CFU/g
Group Geometric mean (20 mg/kg IP Day −3): 4.92 × 10^4 CFU/g
Log10 Group Geometric mean (20 mg/kg IP Day −3): 4.69 CFU/g
Log10 reduction from vehicle control (20 mg/kg IP Day −3): −0.92 CFU/g
Group Geometric mean (20 mg/kg IP Day −5): 8.35 × 10^3 CFU/g
Log10 Group Geometric mean (20 mg/kg IP Day −5): 3.92 CFU/g
Log10 reduction from vehicle control (20 mg/kg IP Day −5): −0.15 CFU/g

CCCCCOc1ccc(-c2cc(-c3ccc(C(=O)N[C@H]4C[C@@H](O)[C@@H](O)NC(=O)[C@@H]5[C@@H](O)[C@@H](C)CN5C(=O)[C@H]([C@H](O)CC(N)=O)NC(=O)[C@H]([C@H](O)[C@@H](O)c5ccc(O)c(OS(=O)(=O)O)c5)NC(=O)[C@@H]5C[C@@H](O)CN5C(=O)[C@H]([C@@H](C)O)NC4=O)cc3)no2)cc1 [Micafungin, micafungin, reference compound] (X2-[Orn(4R-OH,5R-OH)]T[Hyp][hTyr(3S-OH,4S-OH,3'-OSO3H)][Gln(3R-OH)][Pro(3S-OH,4S-Me)]; lactam 1-C)
Mean Survival [2]: 75.3 h
Median Survival [2]: 73.3 h
Mean Survival (2 mg/kg IP Day −1): 64.7 h
Median Survival (2 mg/kg IP Day −1): 64.7 h
Group Geometric mean (2 mg/kg IP Day 0): 1.08 × 10^4 CFU/g
Log10 Group Geometric mean (2 mg/kg IP Day 0): 4.03 CFU/g
Log10 reduction from vehicle control (2 mg/kg IP Day 0): −0.26 CFU/g
Group Geometric mean (2 mg/kg IP Day −1): 4.34 × 10^4 CFU/g
Log10 Group Geometric mean (2 mg/kg IP Day −1): 4.64 CFU/g
Log10 reduction from vehicle control (2 mg/kg IP Day −1): −0.86 CFU/g

Source: patent US20240076347A1, “METHODS FOR PREVENTING FUNGAL INFECTIONS” (Cidara Therapeutics, Inc., priority 2016, published 2024)
